Key:
Carboplatin = compound: C1CC(C1)(C(=O)[O-])C(=O)[O-].N.N.[Pt+2] [Carboplatin]; conditions: max 10 µM
Procedure, shortened: (§1)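 After 24 hours at 37°C and 5% CO2 in 1536-well plates holding 7.5 μl of DMEM/F12 or RPMI with 10% FBS, cancer cell lines were dosed for 72 hours, with final DMSO typically 0.2%. Viability came from CellTiter-Glo 2.0 luminescence, scaled between the means of blank wells and DMSO wells. A non-linear mixed effects model fitted a two-parameter logistic curve to each dose response to give the single-agent IC50.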

AZD5363 = compound: C1CN(CCC1(C(=O)N[C@@H](CCO)C2=CC=C(C=C2)Cl)N)C3=NC=NC4=C3C=CN4 [AZD5363]; conditions: max 10 µM
Procedure, shortened: as §1

AZD1775 = compound: C=CCn1c(=O)c2cnc(Nc3ccc(N4CCN(C)CC4)cc3)nc2n1-c1cccc(C(C)(C)O)n1 [AZD1775]; conditions: max 3 µM
Procedure, shortened: as §1

Trametinib = compound: CC(=O)Nc1cccc(-n2c(=O)n(C3CC3)c(=O)c3c(Nc4ccc(I)cc4F)n(C)c(=O)c(C)c32)c1 [Trametinib]; conditions: max 1 µM
Procedure, shortened: as §1

Paclitaxel = compound: CC(=O)O[C@H]1C(=O)[C@@]2(C)[C@H]([C@H](OC(=O)c3ccccc3)[C@]3(O)C[C@H](OC(=O)[C@H](O)[C@@H](NC(=O)c4ccccc4)c4ccccc4)C(C)=C1C3(C)C)[C@]1(OC(C)=O)CO[C@@H]1C[C@@H]2O [Paclitaxel]; conditions: max 3 µM
Procedure, shortened: as §1

Palbociclib = compound: CC(=O)c1c(C)c2cnc(Nc3ccc(N4CCNCC4)cn3)nc2n(C2CCCC2)c1=O [Palbociclib]; conditions: max 10 µM
Procedure, shortened: as §1

AZD1390 = compound: CC(C)n1c(=O)n(C)c2cnc3cc(F)c(-c4ccc(OCCCN5CCCCC5)nc4)cc3c21 [AZD1390]; conditions: max 0.3 µM
Procedure, shortened: as §1

Venetoclax = compound: CC1(C)CCC(CN2CCN(c3ccc(C(=O)NS(=O)(=O)c4ccc(NCC5CCOCC5)c([N+](=O)[O-])c4)c(Oc4cnc5[nH]ccc5c4)c3)CC2)=C(c2ccc(Cl)cc2)C1 [Venetoclax]; conditions: max 1 µM
Procedure, shortened: as §1

Dasatinib = compound: CC1=C(C(=CC=C1)Cl)NC(=O)C2=CN=C(S2)NC3=CC(=NC(=N3)C)N4CCN(CC4)CCO [Dasatinib]; conditions: max 2 µM
Procedure, shortened: as §1

SG3199 = compound: CC1=CN2[C@@H](C1)C=NC3=CC(=C(C=C3C2=O)OC)OCCCCCOC4=C(C=C5C(=C4)N=C[C@@H]6CC(=CN6C5=O)C)OC [SG3199]; conditions: max 0.001 µM
Procedure, shortened: as §1

AZD2811 = compound: CCN(CCO)CCCOc1ccc2c(Nc3cc(CC(=O)Nc4cccc(F)c4)[nH]n3)ncnc2c1 [AZD2811]; conditions: max 1 µM
Procedure, shortened: as §1

SN-38 = compound: CCc1c2c(nc3ccc(O)cc13)-c1cc3c(c(=O)n1C2)COC(=O)[C@]3(O)CC [SN-38]; conditions: max 0.3 µM
Procedure, shortened: as §1

AZD0156 = compound: CN(C)CCCOc1ccc(-c2ccc3ncc4c(c3c2)n(C2CCOCC2)c(=O)n4C)cn1 [AZD0156]; conditions: max 3 µM
Procedure, shortened: as §1

AZD4320 = compound: CN(CC[C@H](CSC1=CC=CC=C1)NC2=C(C=C(C=C2)S(=O)(=O)NC(=O)C3=CC=C(C=C3)N4CCC(CC4)[C@H](C5=CC=CC=C5C6=CC=C(C=C6)Cl)O)S(=O)(=O)C(F)(F)F)CCO [AZD4320]; conditions: max 1 µM
Procedure, shortened: as §1

Alisertib = compound: COc1cc(Nc2ncc3c(n2)-c2ccc(Cl)cc2C(c2c(F)cccc2OC)=NC3)ccc1C(=O)O [Alisertib]; conditions: max 10 µM
Procedure, shortened: as §1

Etoposide = compound: COc1cc([C@@H]2c3cc4c(cc3[C@@H](O[C@@H]3O[C@@H]5CO[C@@H](C)O[C@H]5[C@H](O)[C@H]3O)[C@H]3COC(=O)[C@H]23)OCO4)cc(OC)c1O [Etoposide]; conditions: max 10 µM
Procedure, shortened: as §1

Gefitinib = compound: COc1cc2ncnc(Nc3ccc(F)c(Cl)c3)c2cc1OCCCN1CCOCC1 [Gefitinib]; conditions: max 10 µM
Procedure, shortened: as §1

Prexasertib = compound: COc1cccc(OCCCN)c1-c1cc(Nc2cnc(C#N)cn2)n[nH]1 [Prexasertib]; conditions: max 1 µM
Procedure, shortened: as §1

Doxorubicin = compound: COc1cccc2c1C(=O)c1c(O)c3c(c(O)c1C2=O)C[C@@](O)(C(=O)CO)C[C@@H]3O[C@H]1C[C@H](N)[C@H](O)[C@H](C)O1 [Doxorubicin]; conditions: max 1 µM
Procedure, shortened: as §1

AZD5153 = compound: COc1nnc2ccc(N3CCC(c4ccc(OCCN5CCN(C)C(=O)[C@H]5C)cc4)CC3)nn12 [AZD5153]; conditions: max 1 µM
Procedure, shortened: as §1

Lapatinib = compound: CS(=O)(=O)CCNCc1ccc(-c2ccc3ncnc(Nc4ccc(OCc5cccc(F)c5)c(Cl)c4)c3c2)o1 [Lapatinib]; conditions: max 10 µM
Procedure, shortened: as §1

AZD8186 = compound: C[C@@H](Nc1cc(F)cc(F)c1)c1cc(C(=O)N(C)C)cc2c(=O)cc(N3CCOCC3)oc12 [AZD8186]; conditions: max 10 µM
Procedure, shortened: as §1

Crizotinib = compound: C[C@@H](Oc1cc(-c2cnn(C3CCNCC3)c2)cnc1N)c1c(Cl)ccc(F)c1Cl [Crizotinib]; conditions: max 10 µM
Procedure, shortened: as §1

Savolitinib = compound: C[C@@H](c1ccc2nccn2c1)n1nnc2ncc(-c3cnn(C)c3)nc21 [Savolitinib]; conditions: max 1 µM
Procedure, shortened: as §1

AZD6738 = compound: C[C@@H]1COCCN1C2=NC(=NC(=C2)C3(CC3)[S@](=N)(=O)C)C4=C5C=CNC5=NC=C4 [AZD6738]; conditions: max 10 µM
Procedure, shortened: as §1

AZD5991 = compound: Cc1c2c(nn1C)CSCc1cc(n(C)n1)CSc1cc(c3ccccc3c1)OCCCc1c(C(=O)O)n(C)c3c-2c(Cl)ccc13 [AZD5991]; conditions: max 1 µM
Procedure, shortened: as §1

AZD7648 = compound: Cc1cc2ncnn2cc1Nc1ncc2c(n1)n(C1CCOCC1)c(=O)n2C [AZD7648]; conditions: max 10 µM
Procedure, shortened: as §1

Taselisib = compound: Cc1nc(-c2cn3c(n2)-c2ccc(-c4cnn(C(C)(C)C(N)=O)c4)cc2OCC3)n(C(C)C)n1 [Taselisib]; conditions: max 10 µM
Procedure, shortened: as §1

Selumetinib = compound: Cn1cnc2c(F)c(Nc3ccc(Br)cc3Cl)c(C(=O)NOCCO)cc21 [Selumetinib]; conditions: max 10 µM
Procedure, shortened: as §1

SRA737 = compound: N#Cc1cnc(Nc2cc(NC[C@H]3CNCCO3)c(C(F)(F)F)cn2)cn1 [SRA737]; conditions: max 10 µM
Procedure, shortened: as §1

MK-2206 = compound: NC1(c2ccc(-c3nc4ccn5c(=O)[nH]nc5c4cc3-c3ccccc3)cc2)CCC1 [MK-2206]; conditions: max 10 µM
Procedure, shortened: as §1

Gemcitabine = compound: Nc1ccn([C@@H]2O[C@H](CO)[C@@H](O)C2(F)F)c(=O)n1 [Gemcitabine]; conditions: max 0.3 µM
Procedure, shortened: as §1

[1] = compound: O=C(Nc1ccc2[nH]nc(-c3ccncc3)c2c1)[C@@H]1CCN(CC(=O)N2CCN(c3ccc(-c4ncccn4)cc3)CC2)C1; conditions: max 5 µM
Procedure, shortened: as §1

Olaparib = compound: O=C(c1cc(Cc2n[nH]c(=O)c3ccccc23)ccc1F)N1CCN(C(=O)C2CC2)CC1 [Olaparib]; conditions: max 10 µM
Procedure, shortened: as §1

5-Fluorouracil = compound: O=c1[nH]cc(F)c(=O)[nH]1 [5-Fluorouracil]; conditions: max 20 µM
Procedure, shortened: as §1

Cell Line | IC50, cell viability 72 h (Carboplatin) | IC50, cell viability 72 h (AZD5363) | IC50, cell viability 72 h (AZD1775) | IC50, cell viability 72 h (Trametinib) | IC50, cell viability 72 h (Paclitaxel) | IC50, cell viability 72 h (Palbociclib) | IC50, cell viability 72 h (AZD1390) | IC50, cell viability 72 h (Venetoclax) | IC50, cell viability 72 h (Dasatinib) | IC50, cell viability 72 h (SG3199) | IC50, cell viability 72 h (AZD2811) | IC50, cell viability 72 h (SN-38) | IC50, cell viability 72 h (AZD0156) | IC50, cell viability 72 h (AZD4320) | IC50, cell viability 72 h (Alisertib) | IC50, cell viability 72 h (Etoposide) | IC50, cell viability 72 h (Gefitinib) | IC50, cell viability 72 h (Prexasertib) | IC50, cell viability 72 h (Doxorubicin) | IC50, cell viability 72 h (AZD5153) | IC50, cell viability 72 h (Lapatinib) | IC50, cell viability 72 h (AZD8186) | IC50, cell viability 72 h (Crizotinib) | IC50, cell viability 72 h (Savolitinib) | IC50, cell viability 72 h (AZD6738) | IC50, cell viability 72 h (AZD5991) | IC50, cell viability 72 h (AZD7648) | IC50, cell viability 72 h (Taselisib) | IC50, cell viability 72 h (Selumetinib) | IC50, cell viability 72 h (SRA737) | IC50, cell viability 72 h (MK-2206) | IC50, cell viability 72 h (Gemcitabine) | IC50, cell viability 72 h [1] | IC50, cell viability 72 h (Olaparib) | IC50, cell viability 72 h (5-Fluorouracil)
NCI-H1355 (Lung Adenocarcinoma) | > 10000 nM | > 10000 nM | > 3000 nM | > 1000 nM | 42.9 nM | > 10000 nM | > 300 nM | > 1000 nM | > 2000 nM | > 1 nM | > 1000 nM | > 300 nM | > 3000 nM | > 1000 nM | > 10000 nM | > 10000 nM | > 10000 nM | 86.5 nM | > 1000 nM | > 1000 nM | > 10000 nM | > 10000 nM | > 10000 nM | > 1000 nM | 8560 nM | > 1000 nM | > 10000 nM | 5790 nM | > 10000 nM | > 10000 nM | > 10000 nM | > 300 nM | > 5000 nM | > 10000 nM | > 20000 nM
NCI-H1993 (Lung Adenocarcinoma) | > 10000 nM | 5220 nM | 1340 nM | 89.4 nM | 11.2 nM | > 10000 nM | > 300 nM | > 1000 nM | > 2000 nM | > 1 nM | > 1000 nM | 262 nM | > 3000 nM | 383 nM | > 10000 nM | 6590 nM | > 10000 nM | 62.5 nM | 249 nM | > 1000 nM | > 10000 nM | > 10000 nM | 309 nM | 22 nM | > 10000 nM | > 1000 nM | > 10000 nM | 4520 nM | 9990 nM | > 10000 nM | 4430 nM | 15.5 nM | 3250 nM | > 10000 nM | 9360 nM
OE33 (Esophageal Adenocarcinoma) | > 10000 nM | > 10000 nM | 1590 nM | > 1000 nM | 736 nM | > 10000 nM | > 300 nM | > 1000 nM | > 2000 nM | > 1 nM | > 1000 nM | 199 nM | > 3000 nM | > 1000 nM | > 10000 nM | > 10000 nM | > 10000 nM | 43.5 nM | > 1000 nM | > 1000 nM | > 10000 nM | > 10000 nM | > 10000 nM | > 1000 nM | 2590 nM | > 1000 nM | > 10000 nM | > 10000 nM | > 10000 nM | 7720 nM | > 10000 nM | 170 nM | > 5000 nM | > 10000 nM | > 20000 nM

— the supplement of paper PMC11061612
